Legend:
JAK2 = target: T1, JAK2 (Homo sapiens, UniProt O60674); experiment: Jak Biochemical HTRF Assay (JAK2); details: recombinant purified GST-tagged catalytic domain, [ATP] 8.5 μM, values given as range classes
T1 construct: recombinant purified GST-tagged catalytic domain for each enzyme; purchased Invitrogen M4290
Procedure, shortened: (§1)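 GST-tagged recombinant catalytic domain and biotinylated peptide substrate were preincubated with compound for 30 min at room temperature in kinase buffer with 2 mM DTT and 0.05% BSA. ATP then started a 120 min reaction. Phosphopeptide was detected by HTRF (Eu-pY20/streptavidin-Dylight 650, 665/615 nm ratio), and IC50 came from a 4-parameter fit of percent inhibition.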

JAK3 = target: T2, JAK3 (Homo sapiens, UniProt P52333); experiment: Jak Biochemical HTRF Assay (JAK3); details: recombinant purified GST-tagged catalytic domain, [ATP] 2.9 μM, values given as range classes
T2 construct: recombinant purified GST-tagged catalytic domain for each enzyme; purchased Invitrogen M4290
T2 sequence (P52333 822-1111 limits assumed): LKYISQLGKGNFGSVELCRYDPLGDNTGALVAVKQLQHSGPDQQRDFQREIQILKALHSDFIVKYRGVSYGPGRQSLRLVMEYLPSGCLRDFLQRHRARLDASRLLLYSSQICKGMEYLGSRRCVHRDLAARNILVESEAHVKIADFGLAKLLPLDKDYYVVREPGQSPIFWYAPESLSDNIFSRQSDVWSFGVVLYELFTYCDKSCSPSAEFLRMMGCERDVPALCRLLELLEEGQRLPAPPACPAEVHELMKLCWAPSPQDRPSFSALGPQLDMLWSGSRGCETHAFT
Procedure, shortened: as §1

T1 sequence (O60674 849-1124 limits assumed): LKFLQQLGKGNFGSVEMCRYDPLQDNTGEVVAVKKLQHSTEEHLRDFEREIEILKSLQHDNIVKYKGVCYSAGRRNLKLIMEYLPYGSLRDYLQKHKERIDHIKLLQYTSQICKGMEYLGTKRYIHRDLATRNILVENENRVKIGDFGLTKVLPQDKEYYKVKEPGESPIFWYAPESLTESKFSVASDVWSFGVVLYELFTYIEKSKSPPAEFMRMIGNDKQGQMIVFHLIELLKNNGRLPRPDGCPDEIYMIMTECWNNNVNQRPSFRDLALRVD

IC50 (JAK2)	IC50 (JAK3)	SMILES
> 500 nM	10 to 500 nM	CC(C)C(Nc1cncc(-c2c[nH]c3ncc(CNC(=O)C4CCCCC4)cc23)c1)C(=O)NCC(F)(F)F (centres unmarked) [Example 10-3, N-({3-[5-({2-methyl-1-[(2,2,2-trifluoroethyl)carbamoyl]prop-yl}amino)pyridin-3-yl]-1H-pyrrolo[2,3-b]pyridin-5-yl}methyl)cyclohexanecar-boxamide]
10 to 500 nM	10 to 500 nM	COCc1cnc2[nH]cc(-c3nncc(N[C@@H](C(=O)NCC(F)(F)F)C(C)C)n3)c2c1 [Example 9-8, N~2~-{3-[5-(methoxymethyl)-1H-pyrrolo[2,3-b]pyridin-3-yl]-1,2,4-triazin-5-yl}-N-(2,2,2-trifluoroethyl)-D-valinamide]
10 to 500 nM	10 to 500 nM	CC(C)[C@H](Nc1cncc(-c2c[nH]c3ncc(-c4cnn(C)c4)cc23)c1)C(=O)NCC(F)(F)F [Example 8-2, N^2-{5-[5-(1-methyl-1H-pyrazol-4-yl)-1H-pyrrolo[2,3-b]pyridin-3-yl]pyridin-3-yl}-N-(2,2,2-trifluoroethyl)-L-valinamide]
10 to 500 nM	10 to 500 nM	C[C@@H](Nc1cncc(-c2c[nH]c3ncc(F)cc23)c1)C(=O)NCC(F)(F)F [Example 1-30, N~2~-[5-(5-fluoro-1H-pyrrolo[2,3-b]pyridin-3-yl)pyridin-3-yl]-N-(2,2,2-trifluoroethyl)-D-alaninamide]
10 to 500 nM	10 to 500 nM	CC(C)C(Nc1cncc(-c2c[nH]c3ncc(NS(C)(=O)=O)cc23)c1)C(=O)NCC(F)(F)F (racemic) [Example 5-3, N^2-(5-{5-[(methylsulfonyl)amino]-1H-pyrrolo[2,3-b]pyridin-3-yl}pyridin-3-yl)-N-(2,2,2-trifluoroethyl)valinamide]
10 to 500 nM	10 to 500 nM	Clc1cnc2[nH]cc(-c3cc(N4CCCC4c4nccs4)cnn3)c2c1 (centres unmarked) [Example 1-26, 5-chloro-3-{5-[2-(1,3-thiazol-2-yl)pyrrolidin-1-yl]pyridazin-3-yl}-1H-pyrrolo[2,3-b]pyridine]
10 to 500 nM	≤ 10 nM	CC(C)[C@H](Nc1cncc(-c2c[nH]c3ncc(OCc4ccccc4)cc23)c1)C(=O)NCC(F)(F)F [Example 2-4, N~2~-{5-[5-(benzyloxy)-1H-pyrrolo[2,3-b]pyridin-3-yl]pyridin-3-yl}-N-(2,2,2-trifluoroethyl)valinamide]
10 to 500 nM	10 to 500 nM	CC(C)[C@@H](Nc1cncc(-c2c[nH]c3ncc(CN4CCCC4)cc23)c1)C(=O)NCC(F)(F)F [Example 9-7, N~2~-{5-[5-(pyrrolidin-1-ylmethyl)-1H-pyrrolo[2,3-b]pyridin-3-yl]pyridin-3-yl}-N-(2,2,2-trifluoroethyl)-D-valinamide]
10 to 500 nM	10 to 500 nM	CCOC(=O)Nc1cnc2[nH]cc(-c3cncc(NC(C(=O)NCC(F)(F)F)C(C)C)c3)c2c1 (centres unmarked) [Example 7-2, ethyl {3-[5-({2-methyl-1-[(2,2,2-trifluoroethyl)carbamoyl]propyl}amino)pyridin-3-yl]-1H-pyrrolo[2,3-b]pyridin-5-yl}carbamate]
≤ 10 nM	≤ 10 nM	CC(C)[C@@H](Nc1cncc(-c2c[nH]c3ncc(C(=O)NCc4cnn(C)c4)cc23)c1)C(=O)NCC(F)(F)F [Example 3-12, N-[(1-methyl-1H-pyrazol-4-yl)methyl]-3-[5-({(1R)-2-methyl-1-[(2,2,2-trifluoroethyl)carbamoyl]propyl}amino)pyridin-3-yl]-1H-pyrrolo[2,3-b]pyridine-5-carboxamide]
10 to 500 nM	10 to 500 nM	N#Cc1cnc2[nH]cc(-c3nncc(N[C@@H]4CCCC[C@@H]4C(=O)NCC(F)(F)F)n3)c2c1 [Example 1-22, (1S,2R)-2-{[3-(5-cyano-1H-pyrrolo[2,3-b]pyridin-3-yl)-1,2,4-triazin-5-yl]amino}-N-(2,2,2-trifluoroethyl)cyclohexane-carboxamide]
10 to 500 nM	≤ 10 nM	CC(C)[C@H](Nc1cncc(-c2c[nH]c3ncc(OCCN4CCOCC4)cc23)c1)C(=O)NCC(F)(F)F [Example 2-15, N~2~-{5-[5-(2-morpholin-4-ylethoxy)-1H-pyrrolo[2,3-b]pyridin-3-yl]pyridin-3-yl}-N-(2,2,2-trifluoroethyl)valinamide]
> 500 nM	10 to 500 nM	CC(C)[C@H](Nc1cncc(-c2c[nH]c3ncc(CNC(=O)N4CCCC4)cc23)c1)C(=O)NCC(F)(F)F [Example 10-11, N~2~-[5-(5-{[(pyrrolidin-1-ylcarbonyl)amino]methyl}-1H-pyrrolo[2,3-b]pyridin-3-yl)pyridin-3-yl]-N-(2,2,2-trifluoroethyl)valinamide]
10 to 500 nM	≤ 10 nM	CC(C(=O)NCC(F)(F)F)n1ccc2ncc(-c3c[nH]c4ncc(Cl)cc34)cc21 (centres unmarked) [Example 1-35, 2-[6-(5-chloro-1H-pyrrolo[2,3-b]pyridin-3-yl)-1H-pyrrolo[3,2-b]pyridin-1-yl]-N-(2,2,2-trifluoroethyl)propanamide]
10 to 500 nM	≤ 10 nM	CC(C)[C@H](Nc1cncc(-c2c[nH]c3ncc(CNC(=O)C4CC4)cc23)c1)C(=O)NCC(F)(F)F [Example 10-6, N~2~-[5-(5-{[(cyclopropylcarbonyl)amino]methyl}-1H-pyrrolo[2,3-b]pyridin-3-yl)pyridin-3-yl]-N-(2,2,2-trifluoroethyl)valinamide]
10 to 500 nM	≤ 10 nM	CC(=O)Nc1cnc2[nH]cc(-c3cncc(N[C@H](C(=O)NCC(F)(F)F)C(C)C)c3)c2c1 [Example 5-2, N^2-{5-[5-(acetylamino)-1H-pyrrolo[2,3-b]pyridin-3-yl]pyridin-3-yl}-N-(2,2,2-trifluoroethyl)valinamide]
10 to 500 nM	≤ 10 nM	CC(C)[C@H](Nc1cncc(-c2c[nH]c3ncc(OCCN4CCN(C)CC4)cc23)c1)C(=O)NCC(F)(F)F [Example 2-17, N~2~-(5-{5-[2-(4-methylpiperazin-1-yl)ethoxy]-1H-pyrrolo[2,3-b]pyridin-3-yl}pyridin-3-yl)-N-(2,2,2-trifluoroethyl)valinamide]
10 to 500 nM	≤ 10 nM	CC(C)(Nc1cnnc(-c2c[nH]c3ncc(C(N)=O)cc23)n1)C(=O)NCC(F)(F)F [Example 1-13, 3-[5-({1,1-dimethyl-2-oxo-2-[(2,2,2-trifluoroethyl)amino]ethyl}amino)-1,2,4-triazin-3-yl]-1H-pyrrolo[2,3-b]pyridine-5-carboxamide]
10 to 500 nM	≤ 10 nM	C[C@@H](Nc1cncc(-c2c[nH]c3ncc(C(N)=O)cc23)c1)C(=O)NCC(F)(F)F [Example 1-46, 3-[5-({(1R)-1-methyl-2-oxo-2-[(2,2,2-trifluoroethyl)amino]ethyl}amino)pyridin-3-yl]-1H-pyrrolo[2,3-b]pyridine-5-carboxamide]
10 to 500 nM	≤ 10 nM	CC(C)[C@H](Nc1cncc(-c2c[nH]c3ncc(OCCc4ccccc4)cc23)c1)C(=O)NCC(F)(F)F [Example 2-7, N~2~-{5-[5-(2-phenylethoxy)-1H-pyrrolo[2,3-b]pyridin-3-yl]pyridin-3-yl}-N-(2,2,2-trifluoroethyl)valinamide]
10 to 500 nM	≤ 10 nM	CC(C)Oc1cnc2[nH]cc(-c3cncc(N[C@@H](C(=O)NCC(F)(F)F)C(C)C)c3)c2c1 [Example 2-3, N~2~-{5-[5-(1-methylethoxy)-1H-pyrrolo[2,3-b]pyridin-3-yl]pyridin-3-yl}-N-(2,2,2-trifluoroethyl)-D-valinamide]
> 500 nM	10 to 500 nM	O=C(NCC(F)(F)F)[C@H]1CCCC[C@H]1Nc1cnnc(-c2c[nH]c3ncc(F)cc23)n1 [Example 1-21, (1S,2R)-2-{[3-(5-fluoro-1H-pyrrolo[2,3-b]pyridin-3-yl)-1,2,4-triazin-5-yl]amino}-N-(2,2,2-trifluoroethyl)cyclohexane-carboxamide]
10 to 500 nM	10 to 500 nM	Fc1cnc2[nH]cc(-c3nncc(N4CCCC4c4nccs4)n3)c2c1 (centres unmarked) [Example 1-11, 5-fluoro-3-{5-[2-(1,3-thiazol-2-yl)pyrrolidin-1-yl]-1,2,4-triazin-3-yl}-1H-pyrrolo[2,3-b]pyridine]
10 to 500 nM	10 to 500 nM	C[C@@H](Nc1cnnc(-c2c[nH]c3ncc(F)cc23)n1)C(=O)NCC(F)(F)F [Example 1-8, N~2~-[3-(5-fluoro-1H-pyrrolo[2,3-b]pyridin-3-yl)-1,2,4-triazin-5-yl]-N-(2,2,2-trifluoroethyl)-D-alaninamide]
10 to 500 nM	≤ 10 nM	CC(C)[C@@H](Nc1cncc(-c2c[nH]c3ncc(COCCN4CCN(C(=O)OC(C)(C)C)CC4)cc23)c1)C(=O)NCC(F)(F)F [Example 9-3, tert-butyl 4-[2-({3-[5-({(1R)-2-methyl-1-[(2,2,2-trifluoroethyl)carbamoyl]propyl}amino)pyridin-3-yl]-1H-pyrrolo[2,3-b]pyridin-5-yl}methoxy)ethyl]piper-azine-1-carboxylate]
10 to 500 nM	≤ 10 nM	Clc1cnc2[nH]cc(-c3cncc(N4CCCC4c4nccs4)c3)c2c1 (centres unmarked) [Example 1-28, 5-chloro-3-{5-[2-(1,3-thiazol-2-yl)pyrrolidin-1-yl]pyridin-3-yl}-1H-pyrrolo[2,3-b]pyridine]
≤ 10 nM	≤ 10 nM	CC(CO)NC(=O)c1cnc2[nH]cc(-c3cncc(N[C@@H](C(=O)NCC(F)(F)F)C(C)C)c3)c2c1 (stereo partly drawn) [Example 3-4, N-(2-hydroxy-1-methylethyl)-3-[5-({(1R)-2-methyl-1-[(2,2,2-trifluoroethyl)carbamoyl]propyl}amino)pyridin-3-yl]-1H-pyrrolo[2,3-b]pyridine-5-carboxamide]
10 to 500 nM	≤ 10 nM	C/C=C/C(=O)NCc1cnc2[nH]cc(-c3cncc(N[C@H](C(=O)NCC(F)(F)F)C(C)C)c3)c2c1 [Example 10-4, N~2~-[5-(5-{[(2E)-but-2-enoylamino]methyl}-1H-pyrrolo[2,3-b]pyridin-3-yl)pyridin-3-yl]-N-(2,2,2-trifluoroethyl)valinamide]

Source: patent US9096598B2 (Merck Sharp & Dohme Corp., priority 2011, dated 2015)
